The values below come from US7943338B2, “Autoimmune conditions and NADPH oxidase defects” (Arexis AB, priority 2002, dated 2011).

Series [1] has as its system NADPH complex. Put plainly: Oxygen burst studies, activation of NADPH complex (cell type not stated). Format: cell-based. The note with it: oxygen burst studies / WST-1 assay. As for the experimental part:
The unsaturated fatty acids C14:1-C24:1 (myristoleic acid, palmitoleic acid, oleic acid, linoleic acid, linolenic acid, 11c-eicosenoic acid, arachidonic acid, erucic acid, and neuronic acid) and squalenee (Sigma) were also tested.
(§1) 10 μL of each of the oils to be tested was added with 9 μL of WST1 to the wells of a 96 well microtitre plate. 10^6 cells/mL (100 μL of 10^7 cells/mL) were added to each well and the color change measured in a spectrophotometer at 450 nm at 37° for 60 minutes (one measurement/min).
10 μL each of the oils to be tested were added to the wells of a 96 well microtitre plate. 50 μL of cytochrome C (4 mg/mL) and […] (50 μL of 10^7 cells/mL) were added to each well and the absorbance measured in a spectrophotometer at 550 nm at 37° C. for 60 minutes (one measurement/minute).
For orientation: Formazan colour is commonly taken as a measure of viable cells.

Series [2] deals with DA rats. As to the kind of experiment: Arthritis-inducing effect of oils injected intradermally at the base of the tail. Format: in vivo, Rat (Rattus norvegicus). The note with it: oil injected intradermally at base of tail, scored days 12-31, FIG. 10. The text has this: The arthritis-inducing effects of the oils was examined by injecting the oils intradermally into DA rats. […] Note that p<0.05 for alkanes shorter than C15 compared to C19. All statistics evaluated with student's t-test. N=4 for all groups.

Series [3] relates to DA rats. Put plainly: Treatment of hexadecane-induced arthritis with hexadecene. Format: in vivo, Rat (Rattus norvegicus). As to the method:
Groups of DA rats were injected i.d. at the base of the tail as follows: • Hexadecane 200 μL day 0; • Hexadecene 200 μL day 0; • Hexadecene 200 μL day −5, Hexadecane 200 μL day 0; • Olive oil 200 μL day −5, Hexadecane 200 μL day 0; • Hexadecene 200 μL day +5, Hexadecane 200 μL day 0; and • Olive oil day 200 μL +5, Hexadecane 200 μL day 0.
The rats were scored as indicated above. Olive oil was used as a control.

Series [4] can be described thus: In vivo distribution of 14C-labeled oils. On the set-up: species or system Rat (Rattus norvegicus). As to the method:
[1-14C]-Hexadecane and [1-14C]-Oleic acid were purchased from Amersham. The oils were injected intradermally at the base of the tail in 18 DA rats (200 μL). At day 10, the organs (lymph nodes, spleen, liver and kidney) of three rats from each group were collected. The organs were weighed and homogenized in a total volume of 2 mL PBS and frozen. The same procedure was followed at day 20 and at day 30. 1 mL of the homogenised samples was then added to 10 mL Ready Safe (Beckman) and counted in a beta counter. The distribution of radioactive labelled hexadecane to the lymph nodes was also inspected at earlier time points (day 3, day 6, day 10, and day 13).

The conditions of series [5]: in vivo; cited from earlier work.
The conditions of series [6]: in vivo; cited from earlier work. The source holds these as a separate data set.
For series [7], the system named is DA rats. Put plainly: Treatment of experimental allergic encephalomyelitis (EAE) with phytol. Particulars: 200 μL phytol at day -10 and day +5; olive oil control; p<0.05; FIG. 16. Format: in vivo, Rat (Rattus norvegicus). As for the experimental part:
Groups of DA rats were injected at the base of the tail with 200 μL phytol at day -10, day -5, and day +5. Olive oil was used as a control. At day 0, all rats were treated (immunized) with 200 μL SCH (DA spinal cord homogenate, to induce EAE) i.d. at the base of the tail. The rats were then scored according to the following scale for 40 days: • 0=Normal • 1=Tail weakness • 2=Tail paralysis • 3=Tail paralysis and mild […] • 4=Tail paralysis and severe […] • 5=Tail paralysis and paralysis of one limb • 6=Tail paralysis and paralysis of a pair of limbs • 7=Tetra-paresis • 8=Pre-morbid or dead.

For series [8], the system named is DA rats. As to the kind of experiment: Route of administration of phytol in treatment of PIA. Format: in vivo, Rat (Rattus norvegicus). Particulars: FIG. 17. As to the method: Groups of DA rats were treated with phytol according to one of the following treatment regimens at day −5 and at day +5. All rats were injected with […] (200 μL) at day 0 intradermally at the base of the tail. Phytol was administered to groups of rats as follows: • 25 μL phytol intranasally (i.n.); • 200 μL phytol intraperitoneally (i.p.); • 200 μL phytol intradermally at the base of the tail (i.d.); and • 1 mL phytol per os (p.o.).
The rats were scored from day 9 using the extended scoring system (as discussed previously).

Series [9] has as its system DA rats. Put plainly: Collagen induced arthritis (CIA) in rats treated with phytol. Type of series: in vivo, Rat (Rattus norvegicus). The note with it: FIG. 22. As for the experimental part: DA rats were treated according to one of the following alternatives: (1) 200 μL phytol intra-dermal at the base of the tail at day −10; (2) 200 μL phytol intra-dermal at the base of the tail at day −5; (3) 200 μL phytol intra-peritoneal at day −5 and day +5; or (4) control untreated. CIA was induced in all animals at day 0 by injecting […] of collagen II dissolved in 75 μL 0.1 M Acetic acid and emulsified in 75 μL IFA. The rats were scored from day 10 using the extended scoring system (see above).

Series [10] has as its system DA rats. As to the kind of experiment: Treatment of active PIA with phytol or undecane. Format: in vivo, Rat (Rattus norvegicus). Particulars: 200 μL i.p. or i.d. at day 21 and day 26; FIG. 23. As to the method: Groups of DA rats were injected with […] at day 0. The […] (150 μL) was injected intra-dermal at the base of the tail. The rats were scored from day 9 using the extended scoring system (see above). Then, the rats were treated at day 21 and at day 26 with one of the following alternatives: (1) 200 μL phytol intra-peritoneal; (2) 200 μL phytol intra-dermal at the base of the tail; (3) 200 μL undecane intra-peritoneal; (4) 200 μL undecane intra-dermal at the base of the tail; or (5) control untreated.

The subject of series [11] is NADPH complex. As to the kind of experiment: Oxidative burst WST-1 assay, E3 rat peritoneal cells. The note with it: peritoneal cells from E3 rat after thioglycolate; FIG. 9A. Type of series: cell-based. As to the method:
The unsaturated fatty acids C14:1-C24:1 (myristoleic acid, palmitoleic acid, oleic acid, linoleic acid, linolenic acid, 11c-eicosenoic acid, arachidonic acid, erucic acid, and neuronic acid) and squalenee (Sigma) were also tested. The oils were solubilized by dilution in cyclodextrin (100 mM in PBS).
5 mL thioglycolate (2.4%) was injected intraperitoneally in E3 rats to elicit recruitment of neutrophils 16 hours before sacrifice. 40 mL PBS+hepes (1%) was injected into the peritoneum and the cell suspension extracted. Red blood cells were lysed with 0.84% NH4Cl, and WBC were washed in PBS and resuspended in PBS at a concentration of about 10^7 cells/mL.
as §1

The target in series [12] is T1, NADPH complex (Homo sapiens, UniProt P14598).
T1 construct: endogenous in cells; host or cells: HL60 cells differentiated with 1.25% DMSO
T1 sequence (P14598 1-390): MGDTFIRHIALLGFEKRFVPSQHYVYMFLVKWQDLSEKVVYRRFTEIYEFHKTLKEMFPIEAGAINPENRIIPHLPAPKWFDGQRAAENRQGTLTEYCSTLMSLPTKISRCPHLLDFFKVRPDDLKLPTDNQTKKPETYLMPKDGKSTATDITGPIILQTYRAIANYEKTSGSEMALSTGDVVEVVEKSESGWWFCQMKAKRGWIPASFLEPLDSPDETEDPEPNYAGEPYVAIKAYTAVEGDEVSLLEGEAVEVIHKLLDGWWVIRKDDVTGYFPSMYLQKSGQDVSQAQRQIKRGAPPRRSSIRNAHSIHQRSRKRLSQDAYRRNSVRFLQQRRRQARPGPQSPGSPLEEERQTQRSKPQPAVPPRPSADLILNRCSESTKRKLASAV
Put plainly: Oxidative burst WST-1 assay, HL60 cells. Type of series: cell-based. The note with it: FIG. 9B. As to the method:
The unsaturated fatty acids C14:1-C24:1 (myristoleic acid, palmitoleic acid, oleic acid, linoleic acid, linolenic acid, 11c-eicosenoic acid, arachidonic acid, erucic acid, and neuronic acid) and squalenee (Sigma) were also tested. The oils were solubilized by dilution in cyclodextrin (100 mM in PBS). Human […] cell line HL60 was cultured in Dulbeccos complete medium with Hepes, 10% Fetal calf serum, and Penicillin-Streptomycin. HL60 cells differentiated to neutrophil-macrophages six days after addition of 1.25% DMSO. The cells were spun down at 1200 rpm for 5 minutes and then washed with PBS twice. The cells were then resuspended in PBS to a concentration of about 10^7 cells/mL. 10 μL of each of the oils to be tested was added with 9 μL of WST1 to the wells of a 96 well microtitre plate. 10^6 cells/mL (100 μL of 10^7 cells/mL) were added to each well and the color change measured in a spectrophotometer at 450 nm at 37° for 60 minutes (one measurement/min).

Series [13] deals with DA rats. As to the kind of experiment: Treatment/prevention of pristane-induced arthritis with undecane. Format: in vivo, Rat (Rattus norvegicus). As for the experimental part:
Groups of DA rats were injected intradermally at the base of the tail with 200 μL of the oils as indicated below: • Undecane day −10, […] day 0; • Olive oil day −10, […] day 0; • Undecane day −5, […] day 0; • Undecanol day −5, […] day 0; Olive oil day −5, […] day 0; • Undecane day 5, […] day 0; and • Olive oil day 5, […] day 0.
The rats were scored every other day starting at day 11 according to the extended scoring system where every red or swollen toe or mid foot scored one point, and a red and swollen ankle scored five points, yielding a total of 15 points/limb and 60 points/rat. Olive oil and undecanol were used as controls.

Series [14] in a line: Lymph node distribution of 14C-hexadecane after hexadecene at day -5. Type of series: in vivo, Rat (Rattus norvegicus). Particulars: hexadecene 0, 50, 100 or 200 μL day -5; 14C-hexadecane day 0; day 10. As for the experimental part:
An experiment was performed to determine if oils compete for available space in the lymph nodes and if such a competition was the reason for the preventive effects of pre-treatment with hexadecene and undecane. At day −5, DA rats were injected with one of the following amounts of hexadecene: 0 μL, 50 μL, 100 μL, or 200 μL. At day 0, all rats were injected intradermally with 14C-hexadecane at the base of the tail. At day 10, the rats were sacrificed and the lymph nodes were collected and placed in PBS, homogenized, and frozen. 1 mL of the homogenate was then transferred to Ready Safe (Beckman) and analysed in a β-counter (Beckman).

Entries after “also recorded” stand apart in the source; their conditions may differ.

Take `CCCCCCCCCCCCCCCC` [hexadecane]: the “activation of the NADPH complex” value in series [1] is on record as “activated the complex”. Besides, the arthritis induction result is reported as “induced arthritis” in series [2] and “induce arthritis” in series [6]. Further, in [3] (rat, in vivo), the arthritis-inducing capacity entry was “induces arthritis”. Moreover, the “arthritis in rats treated with radioactively-labeled oils” value in series [4] (200 μL i.d. at base of tail, DA rats, FIG. 13) is “only the rats injected with hexadecane had arthritis”. Also, the “time of maximum accumulation in the lymph nodes” value in [4] (FIG. 15) was determined as 10 days. Further, the “time course of accumulation in the lymph nodes” value in series [4] (days 3, 6, 10, 13 and later, FIG. 15) is on record as “increase in the accumulation of hexadecane in the lymph nodes until day 10; also recorded: slowly decreased”. In [4] (hexadecane compared with oleic acid), the “extent of distribution to the lymph nodes” value was “higher extent than oleic acid”. Further, the “distribution of 14C-labeled hexadecane” value in [5] is given as “disseminated predominantly to the lymph nodes”.

Take `C/C(=C\CO)CCC[C@H](C)CCC[C@H](C)CCCC(C)C` [phytol]: the “additive score and maximum score of EAE, phytol vs control rats” value in [7] was “significant difference”. Besides, the “effect on PIA” value in [8] (25 μL phytol i.n. day -5 and day +5) is “ameliorative and preventive effects”; in series [8] (200 μL phytol i.d. day -5 and day +5), “ameliorating and preventive effect”; in series [8] (200 μL phytol i.p. day -5 and day +5), “ameliorative and preventive effects”. Further, the “development of arthritis in CIA rat model” value was “prevented development of arthritis” in [9] (200 μL phytol intra-dermal day -10 or day -5); “prevented development of arthritis” in [9] (200 μL phytol intra-peritoneal day -5 and day +5). Further, the “effect on active arthritis in PIA rat model” value in series [10] is “effective against active arthritis”. Besides, in series [6], the arthritis induction entry is given as “do not”.

On to `CCCCCCCCCCC` [undecane], for which the “activation of the oxidative burst (WST-1 assay)” value in series [11] and in series [12] was “potent activator” throughout. The “activation of the NADPH complex” value in series [1] was “activated the NADPH complex”. Moreover, the arthritis induction result in series [2] is given as “did not induce arthritis”. Also, in [13] (200 μL i.d. day -5, pristane day 0, p<0.05, FIG. 11B, 11C), the “additive score and maximum score of PIA, undecane vs olive oil” value is listed as “significant difference”. For the same compound, the “additive score and maximum score of PIA, undecane vs undecanol” value in series [13] (200 μL i.d. day -5, pristane day 0, p=0.05 additive, p<0.05 maximum) is “significant difference”. Further, the “arthritis score / preventive effect, undecane day +5 compared with day -10 or day -5” value in series [13] (200 μL i.d., pristane day 0) was “slightly higher score; also recorded: did not show as significant a preventive effect as at day −10 or at day −5”. For the same compound, the “effect on active arthritis in PIA rat model” value in series [10] was “effective against active arthritis”.

On to hexadecene, for which the arthritis-inducing capacity entry in [3] (200 μL i.d. day 0 alone, FIG. 12, p<0.05 hexadecane vs hexadecene) is listed as “does not”. Moreover, the “development of hexadecane induced arthritis” value in [3] (hexadecene 200 μL i.d. day -5 or day +5, hexadecane day 0) is on record as “None of the rats treated with hexadecene developed arthritis; also recorded: None of the rats treated with hexadecene showed any symptoms of arthritis”. Further, the “difference in arthritis scores vs control rats” value in series [3] (hexadecene day -5 and day +5, p<0.05) is “significant”. Moreover, the “amount of hexadecane in draining lymph nodes” value in [14] is listed as “not affected”. For the same compound, in [6], the arthritis induction entry is “do not”.
